Laboratory results: patent US9051551B2, “Methods and compositions for increasing sensitivity to tyrosine kinase inhibitors” (The University of Western Australia, priority 2009, dated 2015)

What was measured:
FaDu HNC cell line = assay: Erlotinib sensitivity assay (CellTitre 96 cell viability); settings: Homo sapiens, 72 h, read-out: Erlotinib sensitivity (EC50)
SCC-9 HNC cell line = assay: as above; settings: Homo sapiens, SCC-9, 72 h, read-out: Erlotinib sensitivity (EC50)
HN5 HNC cell line = assay: as above; settings: Homo sapiens, HN5, 72 h, read-out: Erlotinib sensitivity (EC50)
[1] = cited from earlier work

Question: Which results are given for `C#Cc1cccc(Nc2ncnc3cc(OCCOC)c(OCCOC)cc23)c1` [erlotinib, N-(3-ethynylphenyl)-6,7-bis(2-methoxyethoxy)quinazolin-4-amine]?
Answer: EC50 (FaDu HNC cell line): 8260 nM; EC50 (SCC-9 HNC cell line): 2150 nM; EC50 (HN5 HNC cell line): 640 nM; Concentration in serum of patients treated with erlotinib [1]: 3000 to 10000 nM
